Measurements taken from US9266834B2, “1, 4-disubstituted 3-cyano-pyridone derivatives and their use as positive allosteric modulators of MGLUR2-receptors” (JANSSEN PHARMACEUTICALS, INC., priority 2006, dated 2016).

Molecular target: T1, human mGluR2 receptor (Homo sapiens, UniProt Q14416)
T1 construct: expressed in transfected cells; host or cells: CHO cells (membrane preparation)
Experiment: [35S]GTPγS binding assay (GTPγS-PAM): positive allosteric modulation in presence of glutamate at EC25, membranes from transfected CHO cells
Type: biochemical
Settings: in presence of mGluR2 agonist glutamate at predetermined EC25 concentration, averages of duplicate values of 11-concentration response curves, read-out: GTPgS - hR2 PAM pEC50 (converted)
Description: The compounds provided in the present invention are positive allosteric modulators of mGluR2. These compounds appear to potentiate glutamate responses by binding to an allosteric site other than the glutamate binding site. The response of mGluR2 to a concentration of glutamate is increased when compounds of Formula (I) are present. Compounds of Formula (I) are expected to have their effect substantially at mGluR2 by virtue of their ability to enhance the function of the receptor. The behaviour of positive allosteric modulators tested at mGluR2 using the [^35S]GTPγS binding assay method described below and which is suitable for the identification of such compounds, and more particularly the compounds according to Formula (I), are shown in Table 4.
[^35S]GTPγS Binding Assay
The [^35S]GTPγS binding is a functional membrane-based assay used to study G-protein coupled receptor (GPCR) function whereby incorporation of a non-hydrolysable form of GTP, [^35S]GTPγS (guanosine 5′-triphosphate, labelled with […] ^35S), is measured. The G-protein o subunit catalyzes the exchange of guanosine 5′-diphosphate (GDP) by guanosine triphosphate (GTP) and on activation of the GPCR by an agonist, [^35S]GTPγS, becomes incorporated and cannot be cleaved to continue the exchange cycle (Harper (1998) Current Protocols in Pharmacology 2.6.1-10, John Wiley & Sons, Inc.). […] Here we describe the use of the [^35S]GTPγS binding assay using membranes from cells transfected with the human mGluR2 receptor and adapted from Schaffhauser et al ((2003) Molecular Pharmacology 4:798-810) for the detection of the positive allosteric modulation (PAM) properties of the compounds of this invention.
CHO-cells were cultured to pre-confluence and stimulated with 5 mM butyrate for 24 hours, prior to washing in PBS, and then collection by scraping in homogenisation buffer (50 mM Tris-HCl buffer, pH 7.4, 4° C.). Cell lysates were homogenized briefly (15 s) using an ultra-turrax homogenizer. The homogenate was centrifuged at 23 500×g for 10 minutes and the supernatant discarded. The pellet was resuspended in 5 mM Tris-HCl, pH 7.4 and centrifuged again (30 000×g, 20 min, 4° C.). The final pellet was resuspended in 50 mM HEPES, pH 7.4 and stored at −80° C. in appropriate aliquots before use. Protein concentration was determined by the Bradford method (Bio-Rad, USA) with bovine serum albumin as standard.
Measurement of mGluR2 positive allosteric modulators in membranes containing human mGluR2 was performed using frozen membranes that were thawed and briefly homogenised prior to pre-incubation in 96-well microplates (15 μg/assay well, 30 minutes, 30° C.) in assay buffer (50 mM HEPES pH 7.4, 100 mM NaCl, 3 mM MgCl2, 50 μM GDP, 10 μg/ml saponin,) with increasing concentrations of positive allosteric modulator (from 0.3 nM to 50 μM) and either a minimal pre-determined concentration of glutamate (PAM assay), or no added glutamate. For the PAM assay, membranes were pre-incubated with glutamate at EC25 concentration, i.e. a concentration that gives 25% of the maximal response glutamate, and is in accordance to published data (Pin et al. (1999) Eur. J. Pharmacol. 375:277-294). After addition of [^35S]GTPγS (0.1 nM, f.c.) to achieve a total reaction volume of 200 μl, microplates were shaken briefly and further incubated to allow [^35S]GTPγS incorporation on activation (30 minutes, 30° C.). The reaction was stopped by rapid vacuum filtration over glass-fibre filter plates (Unifilter 96-well GF/B filter plates, Perkin-Elmer, Downers Grove, USA) microplate using a 96-well plate cell harvester (Filtermate, Perkin-Elmer, USA), and then by washing three times with 300 μl of ice-cold wash buffer (Na2PO4.2H2O 10 mM, NaH2PO4.H2O 10 mM, pH=7.4). Filters were then air-dried, and 40 μl of liquid scintillation cocktail (Microscint-O) was added to each well, and membrane-bound [^35S]GTPγS was measured in a 96-well scintillation plate reader (Top-Count, Perkin-Elmer, USA). […]

T1 sequence (Q14416 19-872): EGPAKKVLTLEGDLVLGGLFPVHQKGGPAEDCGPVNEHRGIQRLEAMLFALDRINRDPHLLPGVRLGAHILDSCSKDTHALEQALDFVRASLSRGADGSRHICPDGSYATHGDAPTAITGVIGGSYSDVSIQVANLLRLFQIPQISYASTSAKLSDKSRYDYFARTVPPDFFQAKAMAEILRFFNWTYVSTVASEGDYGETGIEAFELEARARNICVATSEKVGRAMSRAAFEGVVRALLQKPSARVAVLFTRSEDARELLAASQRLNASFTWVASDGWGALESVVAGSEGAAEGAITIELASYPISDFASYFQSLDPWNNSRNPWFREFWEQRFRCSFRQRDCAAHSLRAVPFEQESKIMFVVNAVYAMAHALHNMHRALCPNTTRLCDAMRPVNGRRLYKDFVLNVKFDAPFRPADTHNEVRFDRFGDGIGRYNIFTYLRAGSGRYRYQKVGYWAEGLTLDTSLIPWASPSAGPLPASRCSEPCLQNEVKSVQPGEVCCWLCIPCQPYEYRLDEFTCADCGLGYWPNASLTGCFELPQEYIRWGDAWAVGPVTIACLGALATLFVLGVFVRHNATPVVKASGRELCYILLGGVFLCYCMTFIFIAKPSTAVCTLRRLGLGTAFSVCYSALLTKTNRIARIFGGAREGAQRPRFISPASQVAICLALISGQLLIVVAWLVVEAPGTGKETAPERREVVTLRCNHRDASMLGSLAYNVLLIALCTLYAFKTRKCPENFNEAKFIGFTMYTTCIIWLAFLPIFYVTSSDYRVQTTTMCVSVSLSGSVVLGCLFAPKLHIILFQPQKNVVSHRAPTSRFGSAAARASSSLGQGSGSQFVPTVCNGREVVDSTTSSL

Compound | EC50 [nM]
CC(C)CCn1ccc(-c2ccc3c(c2)OCCO3)c(C#N)c1=O [1-253] | 501
CC(C)CCn1ccc(-c2ccc(OCCN3CCOCC3)cc2)c(C#N)c1=O [1-139] | 3980
CC(=O)CCOc1ccc(-c2ccn(CCC(C)C)c(=O)c2C#N)cc1 [1-126] | 631
COc1ccc(-c2ccn(CC3CCCCC3)c(=O)c2C#N)cc1 [1-012] | 398
CC(C)CCn1ccc(-c2ccc(N)cc2)c(C#N)c1=O [1-170] | 794
CC(C)CCn1ccc(-c2ccco2)c(C#N)c1=O [1-081] | 6310
N#Cc1c(-c2ccccc2)ccn(CCOc2ccccc2)c1=O [1-047] | 2510
CC(C)CCn1ccc(-c2ccc(OC3CCCC3)c(Cl)c2)c(C#N)c1=O [1-124] | 50.1
CC(C)Oc1ccc(-c2ccn(Cc3ccc(F)cc3)c(=O)c2C#N)cc1Cl [1-025] | 100
COc1cc(-c2ccn(CCC(C)C)c(=O)c2C#N)ccc1OCCOC1CCCCO1 (stereo not shown) [1-138] | 794
CC(C)CCn1ccc(-c2ccc(OC3CCCC3)cc2)c(C#N)c1=O [1-135] | 1000
CC(C)CCn1ccc(-c2ccc(OCC3CC3)cc2)c(C#N)c1=O [1-133] | 200
N#Cc1c(-c2ccccc2)ccn(CCCc2ccccc2)c1=O [1-053] | 5010
CCCCn1ccc(-c2ccc(Oc3cnccn3)cc2)c(C#N)c1=O [1-076] | 3980
CC(C)CCn1ccc(-c2ccc(-c3cnco3)cc2)c(C#N)c1=O [1-250] | 1580
CC(=O)COc1ccc(-c2ccn(CCC(C)C)c(=O)c2C#N)cc1 [1-118] | 2000
CC(C)CCn1ccc(-c2ccc(N3CCCC3)cc2)c(C#N)c1=O [1-218] | 200
CC(C)CCn1ccc(-c2ccc(Nc3ccccc3)cc2)c(C#N)c1=O [1-193] | 5010

Compound | EC50 [nM]
CC(C)CCn1ccc(-c2ccc(OCCF)c(Cl)c2)c(C#N)c1=O [1-121] | 501
N#Cc1c(-c2ccc(Oc3ccnc(N4CCCCC4)c3)cc2)ccn(CC2CC2)c1=O [1-006] | 316
COc1cc(-c2ccn(CCC(C)C)c(=O)c2C#N)ccc1OCc1ccncc1 [1-167] | 501
CC(C)CCn1ccc(-c2ccc(NCc3cccnc3)cc2)c(C#N)c1=O [1-209] | 1260
CC(C)CCn1ccc(-c2ccc(CSc3ccncc3)cc2)c(C#N)c1=O [1-258] | 316
CCCCn1ccc(-c2ccc(Oc3ncccc3C(F)(F)F)cc2)c(C#N)c1=O [1-067] | 158
N#Cc1c(-c2ccc(OCC3CC3)cc2F)ccn(CC2CC2)c1=O [1-003] | 631
CC(C)CCn1ccc(-c2ccc(CNCc3ccccc3F)cc2)c(C#N)c1=O [1-198] | 1260
COc1cc(-c2ccn(CCC(C)C)c(=O)c2C#N)ccc1OCCO [1-109] | 5010
CC(C)CCn1ccc(-c2ccc(Br)c(Br)c2)c(C#N)c1=O [1-092] | 63.1
CC(C)CCn1ccc(-c2ccc(NC3CCCCC3)cc2)c(C#N)c1=O [1-188] | 50.1
CC(C)CCn1ccc(-c2ccc(COc3ccncc3)cc2)c(C#N)c1=O [1-160] | 631
CCCCn1ccc(-c2ccc(Oc3ccncc3)cc2F)c(C#N)c1=O [1-066] | 501
COc1cc(-c2ccn(CCC(C)C)c(=O)c2C#N)ccc1OCc1cccnc1 [1-166] | 1580
CC(C)CCn1ccc(-c2ccc(Cn3ccnc3)cc2)c(C#N)c1=O [1-248] | 3160
CC(C)CCn1ccc(-c2ccc(N3CCCCC3)cc2)c(C#N)c1=O [1-219] | 200
CC(C)CCn1ccc(CCc2ccccc2)c(C#N)c1=O [1-260] | 1260

Results, then the molecule that gave them:

EC50 [nM] | Compound
794 | Cc1ccc(N2CCN(c3ccn(CCC(C)C)c(=O)c3C#N)CC2)nc1 [2-025]
3980 | N#Cc1c(Nc2ccc(Oc3ccncc3)cc2)ccn(CC2CC2)c1=O [1-295]
316 | Cc1c(-c2ccn(CCC(C)C)c(=O)c2C#N)cnn1-c1ccccc1 [5-027]
501 | CCCCn1ccc(N2CCC(Oc3ccc(C#N)cc3)CC2)c(C#N)c1=O [4-009]
1580 | CC(C)CCn1ccc(CCc2cccc(N(C)C)c2)c(C#N)c1=O [1-262]
2510 | CC(C)CCn1ccc(OCCc2ccccc2)c(C#N)c1=O [1-276]
3980 | Cc1onc(-c2ccccc2)c1COc1ccn(CCC(C)C)c(=O)c1C#N [5-045]
501 | CCCCn1ccc(N2CCC(Oc3ccccn3)CC2)c(C#N)c1=O [4-005]
1580 | N#Cc1c(N2CCN(Cc3ccccc3)CC2)ccn(Cc2ccc(F)cc2)c1=O [2-049]
794 | CC(C)CCn1ccc(-c2cccc3[nH]ccc23)c(C#N)c1=O [5-017]
316 | Cc1nc(-c2ccccc2)sc1-c1ccn(CCC(C)C)c(=O)c1C#N [5-028]
794 | COc1ccc(N2CCN(c3ccn(CCC(C)C)c(=O)c3C#N)CC2)cc1 [2-013]
50.1 | CC(C)CCn1ccc(N2CCC(OCc3ccc(OC(F)(F)F)cc3)CC2)c(C#N)c1=O [4-022]
398 | CC(C)CCn1ccc(N2CCC3(CCN(c4ncccn4)CC3)CC2)c(C#N)c1=O [5-034]
501 | N#Cc1c(N2CCC(N3CCc4ccccc4C3)CC2)ccn(Cc2ccc(OC(F)(F)F)cc2)c1=O [4-051]
1260 | CCCCn1ccc(OC2CCN(Cc3cccc(C(F)(F)F)c3)CC2)c(C#N)c1=O [3-002]
1000 | CC(C)CCn1ccc(N2CCCN(c3ccccc3)CC2)c(C#N)c1=O [5-043]
79.4 | CC(C)CCn1ccc(C#Cc2ccccc2)c(C#N)c1=O [1-267, 3-cyano-1-(3-methylbutyl)-4-(phenylethynyl)pyridine-2(1H)-one]

EC50 [nM] | Compound
501 | CC(C)CCn1ccc(N2CCN(c3ccccc3)CC2)c(C#N)c1=O [2-011]
200 | CC(C)CCn1ccc(C2CCN(Cc3cccc(C(F)(F)F)c3)CC2)c(C#N)c1=O [3-014]
6310 | CC(C)CCn1ccc(N2CCN(CCOc3ccc(F)cc3)CC2)c(C#N)c1=O [2-019]
251 | CC(C)CCn1ccc(-c2ccc3[nH]ccc3c2)c(C#N)c1=O [5-016]
316 | CC(C)CCn1ccc(OC2CCN(Cc3cccc(C(F)(F)F)c3)CC2)c(C#N)c1=O [3-008]
2000 | CCCCn1ccc(N2CCC(c3ccccn3)CC2)c(C#N)c1=O [4-001]
100 | CC(C)CCn1ccc(N2CCC(Cc3ccccc3)CC2)c(C#N)c1=O [4-015]
6310 | CC(C)CCn1ccc(N2CCN(c3ccc(C#N)cn3)CC2)c(C#N)c1=O [2-027]
63.1 | CC(C)CCn1ccc(OCc2ccc(SC(F)(F)F)cc2)c(C#N)c1=O [1-287]
251 | CC(C)CCn1ccc(N2CCC3(CC2)COc2ccccc2O3)c(C#N)c1=O [5-036]
200 | CC(C)CCn1ccc(Nc2ccc(Oc3ccccc3)cc2)c(C#N)c1=O [1-301]
2000 | CC(C)CCn1ccc(-c2ccc3c(c2)CCN3)c(C#N)c1=O [5-014]
3160 | CC(C)CCn1ccc(N(C)Cc2ccccc2)c(C#N)c1=O [1-303]
158 | CC(C)CCn1ccc(C#Cc2cccc(N(C)C)c2)c(C#N)c1=O [1-269]
1260 | CC(C)CCn1ccc(N2CCN(Cc3ccccc3)CC2C)c(C#N)c1=O (stereo not shown) [2-021]
631 | CC(C)CCn1ccc(N2CCN(Cc3ccc4c(c3)OCO4)CC2)c(C#N)c1=O [2-016]
398 | CC(C)CCn1ccc(-c2ccc3c(cnn3Cc3ccncc3)c2)c(C#N)c1=O [5-025]
